The source of these data is ChEMBL document CHEMBL1201862, “PubChem BioAssay data set” (2004).

Each structure is given as a SMILES string.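 Assay format: 96-well plates, 48-hour exposure. At the GI50, growth is halved.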 Activity calls are given as the source filed them. No stated cut-off is given here; in the data, active = GI50 up to about 1.1 µM and inactive = higher.

Among the test systems are UO-31; UACC-257; HOP-62; NCI-H226; A498; SNB-75; LXFL 529; LOX IMVI; TK-10; SR; CCRF-CEM; OVCAR-8; COLO 205; RPMI-8226; OVCAR-5; OVCAR-4.
What all share (assay): DTP human tumour cell line panel, 48 h

In general, GI50 refers to the concentration at which growth is held to half of that of the control. Consider `O=C(Nc1nccs1)c1cc(C2=CC=CC([N+](=O)[O-])C=C2)nc(S)n1` (stereo unspecified), for which the GI50 with UO-31, with UACC-257, with HOP-62, in the assay with NCI-H226, in the assay with A498 and in the assay on SNB-75 was > 100 µM (inactive) each time. In addition, the GI50 in the assay with LXFL 529, in the assay with LOX IMVI, with TK-10, in the assay with SR, in the assay on CCRF-CEM and with OVCAR-8 was > 100 µM (inactive) throughout. The GI50 in the assay with COLO 205, in the assay on RPMI-8226 and in the assay with OVCAR-5 was > 100 µM (inactive) throughout.
On to `O=C(CC(=O)C1CCOC1=O)C(=O)Nc1ccc(Cl)cc1Cl` (stereo unspecified), for which the GI50 in the assay with UO-31, in the assay on UACC-257, in the assay on HOP-62, in the assay on NCI-H226, in the assay on A498 and with OVCAR-4 was > 100 µM (inactive) each time. The GI50 in the assay on SNB-75 was 53.1 µM (inactive); with LXFL 529, > 100 µM (inactive); in the assay on LOX IMVI it was > 100 µM (inactive); with TK-10 it was > 100 µM (inactive); with CCRF-CEM it was > 100 µM (inactive); in the assay on OVCAR-8, > 100 µM (inactive). Also, the GI50 with COLO 205, in the assay on RPMI-8226 and in the assay with OVCAR-5 was > 100 µM (inactive) throughout.
For the compound `CN1CCS(=O)(=O)NC(Cc2ccccc2)C(=O)N2CCCC2C1=O` (stereo unspecified), the GI50 in the assay on UO-31, in the assay on UACC-257, with HOP-62, with NCI-H226, in the assay on A498 and in the assay with OVCAR-4 was > 100 µM (inactive) throughout. Besides, the GI50 with SNB-75, with LXFL 529, with LOX IMVI, with TK-10, in the assay with CCRF-CEM and in the assay with OVCAR-8 was > 100 µM (inactive) each time. For the same compound, the GI50 with COLO 205, in the assay on RPMI-8226 and in the assay on OVCAR-5 was > 100 µM (inactive) throughout.
Regarding `COc1cc(CCc2ccc(OC(C)=O)cc2)cc(OC)c1OC`, the GI50 was 73.3 µM (inactive) in the assay on UO-31; > 100 µM (inactive) with UACC-257; > 100 µM (inactive) in the assay on HOP-62; > 100 µM (inactive) with NCI-H226; > 100 µM (inactive) in the assay on A498; > 100 µM (inactive) in the assay on OVCAR-4. Besides, the GI50 in the assay with SNB-75 is 80.5 µM (inactive); in the assay with LXFL 529, > 100 µM (inactive); in the assay with LOX IMVI, 92 µM (inactive); in the assay with TK-10, > 100 µM (inactive); in the assay on CCRF-CEM it was > 100 µM (inactive); with OVCAR-8, > 100 µM (inactive). Further, the GI50 in the assay on COLO 205 was > 100 µM (inactive); in the assay on RPMI-8226, 86.3 µM (inactive); in the assay with OVCAR-5, 72.4 µM (inactive).
For the compound `Cc1ccc(NC(=O)C2C(=O)C(=O)N(c3ccc(C)cc3)C2=O)cc1` (stereo unspecified), the GI50 with UO-31 was > 100 µM (inactive); with UACC-257, > 100 µM (inactive); in the assay with HOP-62, 93.3 µM (inactive); with A498 it was > 100 µM (inactive); in the assay on OVCAR-4, > 100 µM (inactive); in the assay with LXFL 529, > 100 µM (inactive). The GI50 in the assay with TK-10, with SR, with CCRF-CEM, in the assay with OVCAR-8, with COLO 205 and in the assay on OVCAR-5 was > 100 µM (inactive) throughout.
On to `CCCNCCCC(NC(C)=O)C(=O)NCc1ccccc1` (stereo unspecified), for which the GI50 with UO-31, in the assay with UACC-257, in the assay on HOP-62, in the assay on NCI-H226, with A498 and in the assay with OVCAR-4 was > 100 µM (inactive) throughout. The GI50 with SNB-75 was 51.8 µM (inactive); in the assay on LXFL 529, > 100 µM (inactive); with LOX IMVI it was > 100 µM (inactive); in the assay on TK-10 it was > 100 µM (inactive); in the assay with CCRF-CEM it was > 100 µM (inactive); in the assay with OVCAR-8, > 100 µM (inactive). Further, the GI50 with COLO 205, in the assay with RPMI-8226 and with OVCAR-5 was > 100 µM (inactive) throughout.
For `Nc1nc(Cl)cc(NCCCCCCNc2cc(Cl)nc(N)n2)n1`, the GI50 in the assay on UO-31 was > 100 µM (inactive); with UACC-257, 59.6 µM (inactive); with HOP-62 it was > 100 µM (inactive); in the assay with NCI-H226, 25.8 µM (inactive); with OVCAR-4, 88.9 µM (inactive); in the assay on SNB-75, > 100 µM (inactive). In addition, the GI50 was 32.7 µM (inactive) in the assay on LXFL 529; 20.8 µM (inactive) with LOX IMVI; > 100 µM (inactive) in the assay on TK-10; 42 µM (inactive) in the assay with SR; 59.6 µM (inactive) in the assay on CCRF-CEM; > 100 µM (inactive) in the assay on OVCAR-8. For the same compound, the figures for the GI50 in the assay on COLO 205, in the assay on RPMI-8226 and with OVCAR-5 were > 100 µM (inactive), 45.3 µM (inactive) and 16 µM (inactive), respectively.
With `S=C(Nc1ccccc1)N1N=C2c3ccccc3CC[C@H]2[C@@H]1c1ccccc1`, the GI50 is 13.2 µM (inactive) in the assay on UO-31; 3.58 µM (inactive) in the assay with UACC-257; 4.22 µM (inactive) with HOP-62; 4.23 µM (inactive) in the assay with NCI-H226; 11.7 µM (inactive) in the assay with A498; 47.1 µM (inactive) in the assay with OVCAR-4. Besides, the GI50 in the assay with LXFL 529 was 5.52 µM (inactive); with LOX IMVI, 7.35 µM (inactive); in the assay on TK-10 it was > 100 µM (inactive); in the assay on SR it was 0.248 µM (active); with CCRF-CEM it was 2.91 µM (inactive); with OVCAR-8, 10.3 µM (inactive). In addition, the GI50 was 4.34 µM (inactive) in the assay with RPMI-8226 and > 100 µM (inactive) with OVCAR-5.
On to `O=C1[C@@H]2C(c3ccc(Cl)cc3Cl)=NO[C@@H]2C(=O)N1c1ccc(Cc2ccc(N3C(=O)[C@H]4C(c5ccc(Cl)cc5Cl)=NO[C@H]4C3=O)cc2)cc1`, for which the GI50 in the assay on UO-31 is > 100 µM (inactive); in the assay with UACC-257, 41.6 µM (inactive); in the assay on HOP-62 it was > 100 µM (inactive); with NCI-H226, > 100 µM (inactive); in the assay on A498, > 100 µM (inactive); in the assay with OVCAR-4, > 100 µM (inactive). Also, the GI50 with SNB-75 was > 100 µM (inactive); with LXFL 529, 15.6 µM (inactive); in the assay on LOX IMVI it was 47.8 µM (inactive); in the assay with TK-10 it was 51.8 µM (inactive); in the assay on CCRF-CEM, 12.9 µM (inactive); in the assay on OVCAR-8, 40.7 µM (inactive). For the same compound, the values for the GI50 in the assay with COLO 205, in the assay on RPMI-8226 and with OVCAR-5 were 50.9 µM (inactive), 21.2 µM (inactive) and > 100 µM (inactive), respectively.
With `N#C/C(=C\c1ccccc1)C(NO)Nc1ccccc1` (stereo unspecified), the GI50 in the assay on UO-31 was 68.7 µM (inactive); in the assay on UACC-257, > 100 µM (inactive); in the assay with HOP-62, > 100 µM (inactive); with NCI-H226, > 100 µM (inactive); with A498, 80.2 µM (inactive); in the assay on OVCAR-4, 84.3 µM (inactive). Besides, the GI50 in the assay on SNB-75 was 50.6 µM (inactive); in the assay with LXFL 529, 60.3 µM (inactive); with TK-10 it was > 100 µM (inactive); in the assay with SR it was 20.1 µM (inactive); in the assay on CCRF-CEM it was 31.7 µM (inactive); with OVCAR-8 it was 66.1 µM (inactive). Further, the GI50 in the assay with COLO 205 was 45.3 µM (inactive); in the assay with RPMI-8226, 58.1 µM (inactive); with OVCAR-5 it was > 100 µM (inactive).
